# Assay results: patent US4973603A, “Platelet activating factor antagonist and methods of use therefor” (priority 1989, dated 1990)
# “Also recorded” adds a separate entry of the source.
# Tests used:
# [1] = tested on: platelet activating factor (PAF); experiment: PAF Induced Mortality; format: in vivo, mouse (Charles River CD-1, female)
# Method: The induction of mortality by the injection of low doses of PAF into mice has been described as a method for assessing the effectiveness of agents to antagonize the anaphylactic properties of PAF by J. M. Young, P. J. Maloney, S. W. Jubb and J. S. Clarke, in Prostaglandins, 30:545-551 (1985). Charles River CD-1 female mice (25-30 g) were given intraperitoneal injections of PAF (10 μg) dissolved in 100 μl of 5% ethanol-saline. […] Test drugs were orally administered in 50 μl of peanut oil one hour prior to PAF injection. Control mice were dosed with vehicle only. Mortality was assessed by counting survivors at one hour, two hours, and twenty four hours after the PAF injection.
# [2] = tested on: arachidonic acid; experiment: The Mouse Ear Edema Test (arachidonic acid-induced skin edema); format: in vivo, mouse (Charles River CD-1, female); conditions: for % Inhibition of Edema: 1 hour before arachidonic acid (0.5 mg)
# Excerpt: The direct application of arachidonic acid to skin, such as the mouse ear, produces an edematous response which is believed to be mediated by eicosanoids resulting from the actions of both cyclooxygenase and lipoxygenase systems. J. M. Young, D. A. Spires, C. J. Bedford, B. Wagner, S. J. Ballaron and L. M. DeYoung, J. Invest. Dermatol. 82:367-371 (1984); E. E. Opas, R. J. Bonney, and J. L. Hanes J. Invest. Dermatol. 84:253-256 (1985). PAF has been reported to cause the release of arachidonic acid, and as a result, gives rise to increased levels of eicosanoids in the exposed tissues. F. H. Chilton, J. T. Flaherty, C. E. Walsh, M. J. Thomas, R. L. Wykle, L. R. DeChatelet and B. M. Waite, J. Biol. Chem., 257:5402-5407 (1982). Thus, the mouse ear edema test can be used to discover substances which antagonize the effects of PAF.
# The test drugs were dissolved in 10 μl ethanol and applied to the inner surface of the left ears of Charles River CD-1 female mice. Control values were obtained by applying 10 μl of ethanol to the right ear so that each mouse served as its own control. One hour later, arachidonic acid (0.5 mg/ear in 10 μl ethanol) was applied to both ears and allowed to act on the skin for one hour. The mice were then killed by cervical dislocation and the ears removed so that all tissue samples were of equivalent areas. The extent of edema in each sample was measured by weighing on an analytical balance.
# [3] = tested on: 5-HETE synthesis in mouse peritoneal macrophages; experiment: Inhibition of 5-HETE Synthesis in mouse peritoneal macrophages; format: cell-based, mouse (CD-1, female); conditions: for 5-HETE (%) (percentage of total recovered radioactivity): vehicle 2.9 ± 0.16
# Method: It has been proposed that products of lipoxygenase action such as leukotriene […] (LTB4) and 5-hydroxyeicosatetraenoic acid (5-HETE) can act synergistically with PAF to cause neutrophil degranulation which may contribute to the development of inflammation. J. T. O'Flaherty, J. Cell Biology, 122:229-239 (1985). Formula I was tested as an inhibitor of 5-HETE production in mouse peritoneal macrophages using the following procedure.
# Peritoneal cells were collected from female CD-1 mice (20-25 g) following sacrifice by cervical dislocation. The cells from each group of mice were pooled, centrifuged and suspended in MEM. Aliquotes containing 4.5×10^6 cells in 3.0 ml MEM were placed in culture dishes and incubated for 18 hours at 37° C. By this procedure, a relatively homogenous monolayer of macrophages was obtained. Eicosanoid synthesis was brought about by the addition of ^14 C-arachidonic acid (2×10^5 dpm; 0.22 μM) followed by a calcium ionophore, A23187 (0.03 μM). After 15 minutes, the reaction was stopped by the addition of citric acid to pH4 and the products were extracted with ethyl acetate. Silica gel thin layer chromatography (hexane; ether; acetic acid; 50:50:1) was used to separate the 5-HETE which was identified by comparison with authentic material. Carbon-14 content was measured by liquid scintillation counting of the HETE containing zone. The significance of drug induced changes was calculated using the Student's test when compared with vehicle treated (ethanol, 30 μl) cells.
# [4] = tested on: gastric mucosa
# Method: Robert and Szabo, In: Selye's Guide to Stress Research, (Vol. 2, A. Selye, Ed.) New York; Van Nostrand Reinhold Co., pp. 22-46 (1983); and Robert et al., Gastroenterology, 77:433-443 (1979). Experimental groups of 5-11 rats (Charles River CD) were fasted for 24 hours before the administration of either aspirin, Formula I or indomethacin by a rubber stomach tube (Rusch No. 8). The animals were killed 1 hour later by carbon dioxide asphyxiation. At that time, 4 ml of 10% aqueous buffered formaldehyde (formalin) was injected directly into the stomach of each animal. […] After 5 minutes of in situ fixation, the stomach and proximal duodenum were removed, opened along the greater curvature, pinned on a cork with mucosa upward, and immersed in 10% formaldehyde until further processing. Szabo, S. et al., J. Pharmacol. Meth., 13:59-66 (1985). The gastric lesions were then evaluated by direct visual inspection.
# For comparative purposes, a semiquantitative scale of 0-3 was used to assess the extent of gastric mucosal lesions. Szabo et al., Science, 214:200-202 (1981); and Szabo et al., Gastroenterology, 85:1384-1390 (1983). According to this scale, a score of 0 indicates a normal mucosa; 1 represents the appearance of between 1 and 4 small petechiae; 2 indicates the presence of 5 or more petechiae or hemmorhagic streaks up to 4 mm in length; 3 represents the appearance of erosions longer than 5 mm or confluent hemmorrhages.
# [5] = 20 mg/kg oral, 1 hr after PAF (10 μg i.p.)
# [6] = 20 mg/kg oral, 2 hrs after PAF (10 μg i.p.)
# [7] = 20 mg/kg oral, 24 hrs after PAF (10 μg i.p.)
# [8] = 40 mg/kg oral, 1 hr after PAF (10 μg i.p.)
# [9] = 40 mg/kg oral, 2 hrs after PAF (10 μg i.p.)
# [10] = 40 mg/kg oral, 24 hrs after PAF (10 μg i.p.)
# [11] = 80 mg/kg oral, 1 hr after PAF (10 μg i.p.)
# [12] = 80 mg/kg oral, 2 hrs after PAF (10 μg i.p.)
# [13] = 80 mg/kg oral, 24 hrs after PAF (10 μg i.p.)
smiles,measurement,setting,value
"CCCCCc1cc(O)c2c(c1)OC(C)(C)C1CC=C(C(=O)O)CC21 (stereo not shown) [Formula I, 6a,7,10,10a-tetrahydro-6,6-dimethyl-9-carboxyl-3-pentyl-6H-dibenzo[b,d]pyran-1-ol]",Survivors (%),[1]; [5],25%
same,Survivors/N,[1]; [5],5/20
same,Survivors (%),[1]; [6],25%
same,Survivors/N,[1]; [6],5/20
same,Survivors (%),[1]; [7],25%
same,Survivors/N,[1]; [7],5/20
same,Survivors (%),[1]; [8],80%
same,Survivors/N,[1]; [8],12/15
same,Survivors (%),[1]; [9],80%
same,Survivors/N,[1]; [9],12/15
same,Survivors (%),[1]; [10],80%
same,Survivors/N,[1]; [10],12/15
same,survival rate,"[1]; 40 mg/kg oral, all time points (1, 2, 24 hours)",80%
same,Survivors (%),[1]; [11],70%
same,Survivors/N,[1]; [11],7/10
same,Survivors (%),[1]; [12],70%
same,Survivors/N,[1]; [12],7/10
same,Survivors (%),[1]; [13],70%
same,Survivors/N,[1]; [13],7/10
same,antagonism of anaphylactic effects of PAF (in words),"[1]; oral, mouse",potent antagonist to the anaphylactic effects of PAF
same,% Inhibition of Edema,[2]; 0.13 mg/ear topical,0.6%
same,% Inhibition of Edema,[2]; 0.25 mg/ear topical,18.3%
same,% Inhibition of Edema,[2]; 0.50 mg/ear topical,19.1%
same,% Inhibition of Edema,[2]; 1.0 mg/ear topical,19.3%
same,reduction of arachidonic acid-induced skin edema (in words),"[2]; topical, mouse ear",effective in reducing arachidonic acid-induced skin edema
same,relative activity versus naproxen,"[2]; topical, mouse ear",more active than the widely used antiinflammatory drug naproxen
same,relative potency versus indomethacin and phenidone,"[2]; topical, mouse ear",approximately one half the potency of agents such as indomethacin and phenidone
same,5-HETE (%) (percentage of total recovered radioactivity),[3]; 0.32 μM,3.08 ± 0.36%
same,5-HETE (%) (percentage of total recovered radioactivity),[3]; 1.6 μM,3.03 ± 0.42%
same,5-HETE (%) (percentage of total recovered radioactivity),[3]; 3.2 μM,1.58 ± 0.41%
same,5-HETE (%) (percentage of total recovered radioactivity),[3]; 4 μM,1.68 ± 0.15%
same,5-HETE (%) (percentage of total recovered radioactivity),[3]; 8 μM,1.48 ± 0.87%
same,5-HETE (%) (percentage of total recovered radioactivity),[3]; 16 μM,3.10 ± 0.10%
same,inhibition at 3.2 µM,"[3]; Mus musculus, Peritoneal macrophage, 3.2 μM",46%
same,inhibition at 4 µM,"[3]; Mus musculus, Peritoneal macrophage, 4 μM",42%
same,inhibition at 8 µM,"[3]; Mus musculus, Peritoneal macrophage, 8 μM",49%
same,reduction of 5-HETE synthesis (in words),[3]; dose range of 3.2 to 8 μM,reduces 5-HETE synthesis to one half of the control level
same,Incidence (rats with lesions/total tested),"[4]; 80 mg/kg by stomach tube, 1 hour",0/10
same,Mean Score,"[4]; 80 mg/kg by stomach tube, 1 hour, scale 0-3 (0 = normal mucosa)",0.0
same,ulcer / gastric lesion formation (in words),"[4]; directly into the stomach, Formula I at twice its therapeutic dose in the mouse (40 mg/kg), 40 mg/kg",did not induce ulcer formation; also recorded: does not induce the formation of gastric lesions
